Laboratory results from article PMC7563317, “Development of a Cationic Amphiphilic Helical Peptidomimetic (B18L) As A Novel Anti-Cancer Drug Lead” (Cancers, 2020).
Read-outs that look alike come from different tables or passages of the source. Residues, ends and D or L forms follow the SMILES beside them.

Tests used:
[1] = system: SKBR3; details: 24 h
Method: (§1) Cells were plated at 5000 cells/well (cancer cells) or 10,000 cells/well (PBMCs) in a 96-well plate and allowed to attach for 24 h. Cells were then treated with various concentrations of compounds for the times indicated in the different figures. At each time point, the viability of cells was measured using MTT assay. In brief, each well was treated with 20 µL of MTT reagent (5 mg/mL in 1x DPBS) and incubated at 37 °C for 3 h. After 3 h, 100 µL of MTT solvent (90% Isopropanol, 10% Triton X-and 0.4% 1M HCl) was added to each well and the plate was covered from light while shaking for 20 min. The absorbance of solubilized MTT reagent was measured using spectrophotometer at 590 nm. In some experiments with PBMCs, the ATP assay was used to assess cell viability by following manufacture’s instruction. […] Cells were then incubated at 37 °C for the indicated time points on the figure and then treated with equivalent volume of CellTiter-Glo reagent. The plate was rocked for 10 min and luminescence intensity was read using spectrophotometer.

[2] = system: MDA-MB-468; details: 24 h
Method: as §1

[3] = system: MDA-MB-231; details: 24 h
Method: as §1

[4] = system: MCF7-G11-TR1; details: 24 h
Method: as §1

[5] = system: MCF7; details: 24 h
Method: as §1

[6] = system: MCF7-G11-TR5; details: 24 h
Method: as §1

[7] = system: T47D; details: 24 h
Method: as §1

[8] = system: ZR-75-1; details: 24 h
Method: as §1

[9] = system: MCF-10a; details: 24 h
Method: as §1

[10] = system: PBMCs; details: 24 h
Method: as §1

[11] = system: recombinant BST-2 (rBST-2); test: UV absorbance (230 nm) centrifugal filter binding assay; details: 2 mg/mL B18L, 1 mg/mL rBST-2, 37 °C 45 min, 3000 NMWL filter, 13,000 rpm 1 h, UV 230 nm
Method: To validate the MD simulation data, we used UV absorbance based assay to assess the binding affinity of B18L to BST-2 (B18L•BST-2). Following incubation of B18L with rBST-2 or controls (B18L alone and rBST-2 alone) at 37 °C for 45 min, each compound or the B18L•BST-2 mixture was placed in centrifugal filters and spun at 13,000 rpm for 1 h (Figure 2I). Absorbance of compounds (i) prior to addition to the filter (input), (ii) on the apical side of the filter (retained), (iii) in the collection tube (flow through) were obtained and converted to compound concentration using the standard curves (Figure 2J).
B18L (MW = 1.683 kDa), the rBST-2 (MW = 5.832 kDa) and the mixture of B18L and rBST-2 (B18L•BST-2) were titrated with UV spectroscopy at 230 nm to obtain the standard curve. 2 mg/mL of B18L and 1 mg/mL of rBST-2 were preincubated at 37 °C for 45 min. 200 μL mixture was then subjected to the ultracentrifuge tube with 3000 NMWL filter and centrifuged at 13,000 rpm for 1 h. Absorbance of the compounds i) before spin designated as input, ii) compounds left on the apical side of the membrane designated as retained and iii) compounds in the basal side of the tube designated as the flow through were measured with UV spectroscopy. The standard curve was used to extrapolate protein concentrations from the absorbance measurements.

CC(C)C[C@H](NC(=O)[C@H](C)NC(=O)[C@H](CCCCN)NC(=O)[C@H](C)NC(=O)[C@H](CC(C)C)NC(=O)[C@H](CS)NC(=O)[C@H](C)NC(=O)[C@H](CC(C)C)NC(=O)[C@H](C)NC(=O)[C@H](CCCCN)NC(=O)[C@H](C)NC(=O)[C@H](CCCCN)NC(=O)[C@H](C)NC(=O)[C@H](CCCCN)NC(=O)[C@H](CCC(N)=O)NC(=O)[C@H](Cc1ccccc1)NC(=O)CN)C(=O)N[C@@H](C)C(=O)O [B18KA] (H-GFQKAKAKALACLAKALA-OH)
IC50 [1]: 43.5 ± 11.5 µM | IC50 [2]: 136 ± 9.3 µM | IC50 [3]: 83.7 ± 20.1 µM | IC50 [4]: 61.8 ± 5.1 µM | IC50 [5]: 61.8 ± 3.9 µM | IC50 [6]: 56.4 ± 5 µM | IC50 [7]: 78.5 ± 20.9 µM | IC50 [8]: 58.9 ± 2 µM

CSCC[C@H](NC(=O)[C@@H](NC(=O)[C@@H](NC(=O)[C@H](Cc1c[nH]cn1)NC(=O)[C@H](CC(N)=O)NC(=O)[C@H](CS)NC(=O)[C@@H](NC(=O)[C@H](C)NC(=O)[C@H](C)NC(=O)[C@H](CCC(N)=O)NC(=O)[C@H](C)NC(=O)[C@H](CCCCN)NC(=O)[C@@H](NC(=O)[C@H](CCCCN)NC(=O)[C@H](CCC(N)=O)NC(=O)[C@H](Cc1ccccc1)NC(=O)CN)C(C)C)[C@@H](C)O)[C@@H](C)O)C(C)C)C(=O)N[C@@H](C)C(=O)O [B18K] (H-GFQKVKAQAATCNHTVMA-OH; N-terminus and C-terminus assumed)
IC50 ([2]; MDA-MB-468 (Basal A), MTT): > 131 µM | IC50 [3]: > 131 µM | IC50 [4]: > 131 µM | IC50 ([5]; MCF7 (drug-sensitive), MTT): > 131 µM | IC50 [6]: > 131 µM | IC50 [7]: > 131 µM | IC50 [8]: > 131 µM

CC[C@H](C)[C@H](NC(=O)CN)C(=O)NCC(=O)N[C@@H](CCCCN)C(=O)N[C@@H](C)C(=O)N[C@H](C(=O)N[C@@H](C)C(=O)N[C@@H](CCCCN)C(=O)N[C@@H](C)C(=O)N[C@H](C(=O)N[C@@H](C)C(=O)N[C@@H](CS)C(=O)N[C@H](C(=O)N[C@@H](C)C(=O)N[C@@H](CCCCN)C(=O)N[C@@H](C)C(=O)N[C@H](C(=O)N[C@@H](C)C(=O)O)[C@@H](C)CC)[C@@H](C)CC)[C@@H](C)CC)[C@@H](C)CC [B18I] (H-GIGKAIAKAIACIAKAIA-OH)
IC50 [1]: 18.1 ± 4.7 µM | IC50 [2]: 16.6 ± 1.5 µM | IC50 [3]: 18.6 ± 2.4 µM | IC50 [4]: 10.8 ± 2 µM | IC50 [5]: 16 ± 1.6 µM | IC50 [6]: 16.1 ± 4.9 µM | IC50 [7]: > 148 µM | IC50 [8]: 10.1 ± 1.8 µM

CC(C)C[C@H](NC(=O)CN)C(=O)NCC(=O)N[C@@H](CCCCN)C(=O)N[C@@H](C)C(=O)N[C@@H](CC(C)C)C(=O)N[C@@H](C)C(=O)N[C@@H](CCCCN)C(=O)N[C@@H](C)C(=O)N[C@@H](CC(C)C)C(=O)N[C@@H](C)C(=O)N[C@@H](CS)C(=O)N[C@@H](CC(C)C)C(=O)N[C@@H](C)C(=O)N[C@@H](CCCCN)C(=O)N[C@@H](C)C(=O)N[C@@H](CC(C)C)C(=O)N[C@@H](C)C(=O)O [B18L] (H-GLGKALAKALACLAKALA-OH)
IC50 [1]: 7.2 ± 1 µM | IC50 [2]: 12.4 ± 1.4 µM | IC50 [3]: 7.2 ± 0.8 µM | IC50 [4]: 6.2 ± 0.8 µM | IC50 [5]: 5.9 ± 0.5 µM | IC50 [9]: 17.2 ± 6.4 µM | IC50 [6]: 3.8 ± 0.3 µM | IC50 [7]: 17.5 ± 6.5 µM | IC50 [8]: 5.2 ± 1 µM | IC50 [10]: 39.8 ± 3.8 µM

CSCC[C@H](NC(=O)[C@@H](NC(=O)[C@@H](NC(=O)[C@H](Cc1c[nH]cn1)NC(=O)[C@H](CC(C)C)NC(=O)[C@H](CS)NC(=O)[C@@H](NC(=O)[C@H](CC(C)C)NC(=O)[C@H](C)NC(=O)[C@H](CCC(N)=O)NC(=O)[C@H](C)NC(=O)[C@H](CCCCN)NC(=O)[C@@H](NC(=O)[C@H](CCCCN)NC(=O)[C@H](CCC(N)=O)NC(=O)[C@H](Cc1ccccc1)NC(=O)CN)C(C)C)[C@@H](C)O)[C@@H](C)O)C(C)C)C(=O)N[C@@H](C)C(=O)O [B18KL] (H-GFQKVKAQALTCLHTVMA-OH; N-terminus and C-terminus assumed)
IC50 [1]: > 128 µM | IC50 [2]: > 128 µM | IC50 [3]: > 128 µM | IC50 [4]: > 128 µM | IC50 [5]: > 128 µM | IC50 [6]: > 128 µM | IC50 [7]: > 128 µM | IC50 [8]: > 128 µM

B1: BST-2: recombinant BST-2 (MW = 5.832 kDa), extracellular domain, binding partner and control (protein, UniProt Q10589 49-161, looked up)
extracellular domain: NSEACRDGLRAVMECRNVTHLLQQELTEAQKGFQDVEAQAATCNHTVMALMASLDAEKAQGQKKVEELEGEITTLNHKLQDASAEVERLRRENQVLSVRIADKKYYPSSQDSS
modifications: extracellular domain
in the flow-through [11]: 21% | retained on the apical side of the filter [11]: 78%
